Measurements reported in the supplement of paper PMC10307832.

Tests used:
Test in all cases: relative viability (nuclei count vs DMSO), 5 days (fraction); higher = more cells survive
[1] = compound: CC[C@@H](C)CNCC(=O)N1CCC2=C([C@@H]1COC3=CC=CC(=C3)C)C=CS2 [RU-SKI 43] + Cc1cc(Nc2cc(N3CCN(C)CC3)nc(Sc3ccc(NC(=O)C4CC4)cc3)n2)n[nH]1 [Tozasertib] (partner 0.1 µM)
Procedure, shortened: (§1)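 Lung cancer cell lines in 1536-well plates got either a single drug or a fixed anchor-drug dose together with five library-drug doses (not always all listed) in √10 steps, by pin tool, on the day after seeding. Nuclei were counted after 5 days, and relative viability is the treated-to-vehicle ratio of nuclei counts. Values are medians of duplicate plates.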

[2] = compound: CC[C@@H](C)CNCC(=O)N1CCC2=C([C@@H]1COC3=CC=CC(=C3)C)C=CS2 [RU-SKI 43] + O=C(c1cc(Cc2n[nH]c(=O)c3ccccc23)ccc1F)N1CCN(C(=O)C2CC2)CC1 [Olaparib] (partner 8 µM)
Procedure, shortened: as §1

[3] = compound: CCc1c2c(nc3ccc(OC(=O)N4CCC(N5CCCCC5)CC4)cc13)-c1cc3c(c(=O)n1C2)COC(=O)[C@]3(O)CC [Irinotecan] + C[C@]1(O)C[C@@H](c2nc(-c3ccc4ccc(-c5ccccc5)nc4c3)c3c(N)nccn32)C1 [Linsitinib] (partner 1 µM)
Procedure, shortened: as §1

[4] = compound: CCc1c2c(nc3ccc(OC(=O)N4CCC(N5CCCCC5)CC4)cc13)-c1cc3c(c(=O)n1C2)COC(=O)[C@]3(O)CC [Irinotecan] + N=C(N)NC(=N)NCCc1ccccc1 [Phenformin] (partner 250 µM)
Procedure, shortened: as §1

Cell Line | relative viability ([1]; first compound 0.1 µM) | relative viability ([1]; first compound 0.3162 µM) | relative viability ([1]; first compound 1 µM) | relative viability ([1]; first compound 3.162 µM) | relative viability ([1]; first compound 10 µM) | relative viability ([2]; first compound 0.1 µM) | relative viability ([2]; first compound 0.3162 µM) | relative viability ([2]; first compound 1 µM) | relative viability ([2]; first compound 3.162 µM) | relative viability ([2]; first compound 10 µM) | relative viability ([3]; first compound 0.6325 µM) | relative viability ([3]; first compound 2 µM) | relative viability ([3]; first compound 6.325 µM) | relative viability ([3]; first compound 20 µM) | relative viability ([4]; first compound 0.6325 µM) | relative viability ([4]; first compound 2 µM) | relative viability ([4]; first compound 6.325 µM) | relative viability ([4]; first compound 20 µM)
NCI-H647 | 0.262 | 0.261 | 0.227 | 0.231 | 0.262 | 0.584 | 0.821 | 0.512 | 0.695 | 0.628 | 1.03 | 0.329 | 0.178 | 0.15 | 0.463 | 0.644 | 0.161 | 0.104
NCI-H520 | 0.456 | 0.422 | 0.428 | 0.401 | 0.408 | 0.35 | 0.292 | 0.372 | 0.344 | 0.335 | 0.821 | 0.737 | 0.302 | 0.212 | 0.542 | 0.649 | 0.317 | 0.258
IA-LM |  |  |  |  |  | 0.877 | 0.87 | 0.976 | 0.732 | 0.812 | 0.31 | 0.393 | 0.248 | 0.123 |  |  |  | 
LC-2-ad | 0.424 | 0.442 | 0.459 | 0.424 | 0.405 | 0.697 | 0.774 | 0.771 | 0.712 | 0.677 | 0.48 | 0.237 | 0.179 | 0.184 | 0.444 | 0.529 | 0.324 | 0.197
EKVX | 0.354 | 0.379 | 0.374 | 0.372 | 0.31 | 0.716 | 0.971 | 0.866 | 1.04 | 0.849 | 1.1 | 0.906 | 0.377 | 0.238 | 0.216 | 0.185 | 0.224 | 0.151
NCI-H2228 | 0.256 | 0.264 | 0.184 | 0.249 | 0.255 | 0.6 | 0.858 | 0.642 | 0.638 | 0.654 | 0.706 | 0.714 | 0.39 | 0.477 | 0.311 | 0.347 | 0.336 | 0.27
NCI-H596 | 0.996 | 0.849 | 0.869 | 0.954 | 0.849 | 0.719 | 0.548 | 0.654 | 0.712 | 0.709 | 1.01 | 1 | 0.556 | 0.537 | 0.699 | 0.83 | 0.784 | 0.745
NCI-H322M | 0.516 | 0.502 | 0.47 | 0.518 | 0.394 | 0.703 | 0.817 | 0.76 | 0.797 | 0.703 | 0.551 | 0.467 | 0.366 | 0.414 | 0.745 | 0.758 | 0.515 | 0.265
NCI-H358 | 0.109 | 0.106 | 0.0941 | 0.103 | 0.0859 | 0.548 | 0.936 | 0.756 | 0.636 | 0.545 | 0.681 | 0.671 | 0.36 | 0.251 | 0.273 | 0.278 | 0.125 | 0.0851
NCI-H1648 |  |  | 0.428 | 0.484 | 0.4 | 1.02 | 1.06 | 0.614 | 0.91 | 0.835 |  |  |  |  |  |  |  | 
NCI-H1395 | 0.866 | 0.694 | 0.774 | 0.789 | 0.692 | 0.452 | 0.417 | 0.451 | 0.477 | 0.46 |  | 0.804 | 0.484 | 0.29 | 0.403 | 0.493 | 0.389 | 0.399
NCI-H1993 | 0.566 | 0.569 | 0.585 | 0.588 | 0.564 | 1.12 | 1.22 | 1.16 | 0.948 | 0.942 | 0.688 | 0.608 | 0.643 | 0.693 | 0.536 | 0.503 | 0.531 | 0.551
CAL-12T | 0.296 | 0.403 | 0.303 | 0.26 | 0.243 | 0.709 | 0.804 | 0.855 | 0.666 | 0.698 | 0.589 | 0.77 | 0.366 | 0.264 |  | 0.668 | 0.275 | 0.186
ChaGo-K-1 | 0.234 | 0.203 | 0.221 | 0.22 | 0.231 | 0.391 | 0.446 | 0.413 | 0.403 | 0.383 |  |  |  |  | 0.413 | 0.352 | 0.191 | 0.218
NCI-H1299 |  |  |  |  |  | 0.948 | 0.995 | 1.04 | 0.99 | 0.959 | 0.721 | 0.865 | 0.463 | 0.266 |  |  |  | 
NCI-H1703 |  |  |  |  |  | 0.439 | 0.456 | 0.407 | 0.452 | 0.248 | 0.454 | 0.916 | 0.572 | 0.186 |  |  |  | 
NCI-H1792 |  |  |  |  |  | 0.301 | 0.472 | 0.474 | 0.385 | 0.281 | 0.613 | 0.528 | 0.21 | 0.107 | 0.273 | 0.424 | 0.314 | 0.28
NCI-H2342 | 0.489 | 0.528 | 0.502 | 0.441 | 0.516 | 0.387 |  | 0.44 | 0.428 | 0.358 |  |  |  |  | 0.614 | 0.59 | 0.554 | 0.418
NCI-H2170 | 0.701 | 0.953 | 0.751 | 0.722 | 0.701 | 0.587 | 0.683 | 0.599 | 0.61 | 0.59 |  |  |  |  | 0.389 | 0.424 | 0.202 | 0.174
NCI-H522 | 0.566 | 0.544 | 0.581 | 0.537 | 0.524 | 0.661 | 0.641 | 0.596 | 0.707 | 0.601 |  |  |  |  | 0.578 | 0.567 | 0.514 | 0.564
Calu-6 |  |  |  |  |  | 0.555 | 0.621 | 0.622 | 0.615 | 0.499 | 0.714 | 0.523 | 0.2 | 0.132 |  |  |  | 
